# Results as given in article PMC10838660, “Artificial intelligence-powered discovery of small molecules inhibiting CTLA-4 in cancer” (BJC reports, 2024).
# What was measured:
# tumor development = test system: tumor development; parameters: method as in PMID 35254416; conditions: doses of 2 to 200 mg/kg; cited from earlier work
# [1] = test system: human DCs with allogeneic peripheral blood mononuclear cells; experiment: Human DCs cultured with allogeneic PBMCs, flow cytometry; format: cell-based
# Description: CD80 and CD86 on dendritic cells (DCs) interact with CD28 or CTLA-4 on T cells to regulate T-cell activation.
# (§1) The ability of compounds to be immunostimulatory was measured by coculturing mouse-derived TILs with MC38 tumors grown in C57BL/6 mice. Tumors were digested using a Tumor Dissociation Kit (Miltenyi Biotec, 130-095-929). After cell isolation, TILs were extracted with a MagniSort Mouse CD45 isolation kit protocol (Invitrogen, 8802-6865-74). TILs were cocultured with MC38 cells for 48 h, and the expression levels of IFN-γ were detected with the AlphaLISA Mouse IFN-γ Detection Kit (PerkinElmer, AL501C). Human DCs and T cells from different patients were prepared and treated as described. For MC38 and human cancer cells treated with compounds, the CellTiter-Glo Luminescent Cell Viability Assay (Promega, G7570) was used to measure the viability.
# Flow cytometry was used to measure subcellular populations in tumors. All flow cytometry analyses were performed using either an LSR II flow cytometer (BD Biosciences) or a Northern Lights-3000 flow cytometer (Cytek) and analyzed with FlowJo (Treestar, Inc.). All flow analyses were representative of at least 3 independent experiments using […] CD proteins 4, 8, and 25 (CD4, 116003; CD8, 100707; and CD25, 102011); Foxp3 (126409); and IFN-γ (506506) flow antibodies (Biolegend). Antimouse and antihuman CTLA-4 antibodies were purchased from BioLegend (106313) and Invitrogen (46-1529-42).
# [2] = test system: interaction of CTLA-4 with CD80 and CD86; experiment: Luciferase reporter assay, CTLA-4 effector Jurkat T cells with Raji antigen-presenting cells; format: cell-based, human
# Source text: We first evaluated the inhibitory impacts of the compounds against the interaction between CTLA-4 and CD80 using an amplified luminescent proximity homogeneous (Alpha)LISA assay. In this assay, a biotinylated CD80 binds to streptavidin-coated alpha donor beads, while anti-His AlphaLISA acceptor beads capture His-tagged CTLA-4. Upon binding of CD80 to CTLA-4, the donor and acceptor beads draw near, thus excitation of the donor bead leads to the release of singlet oxygen molecules. Consequently, an energy transfer cascade occurs in the acceptor beads, culminating in an intense peak of light emission at 615 nm (Fig. 1a). […] The compounds’ inhibitory activity against CTLA-4 was confirmed through a luciferase reporter assay involving 2 genetically engineered cell lines. First, we developed a CTLA-4 effector cell line using Jurkat T cells expressing human CTLA-4 and a luciferase reporter driven by a native promoter responsive to T-cell receptor (TCR)/CD28 activation. We also managed to establish an adjacent antigen-presenting cell line utilizing Raji cells, which are capable of expressing constitutively active engineered proteins on their surfaces without requiring antigens for effectivity. The Raji cells will also be able to naturally produce endogenous levels of both CD80 as well as CD86 molecules within the target APCs themselves as they transclude from one host to another. […]
# [3] = test system: serum cardiac troponin I type 3 (TNNI3); experiment: Serum TNNI3 in treated mice; format: in vivo; conditions: marker of ipilimumab-induced irAEs
# Source text: (§2) In hCTLA-4 mice, the ECD of the mouse Ctla-4 gene has been replaced with the human counterpart, yet the resulting protein still interacts effectively with mouse CD80 and CD86 [42]. […] Next, we measured the mice’s levels of serum cardiac troponin I type 3 (TNNI3), a marker associated with ipilimumab-induced irAEs. We found elevated serum TNNI3 levels in mice treated with ipilimumab, anti-PD-1, or anti-PD-1 plus D11, but not in mice treated with D11 alone (Fig. 4e). It is unclear why D11 monotherapy appeared to have a protective effect in comparison with anti-PD-1 alone. We also treated 2 human cells lines, HCT116 and MDA-MB231, with D11 and 5-fluorouracil, an antimetabolite drug that is widely used for the treatment of colorectal cancer. […] Thus, it is likely that D11 is weakly toxic to tumor cells and that its antitumor effects are largely due to its regulation of the immune response.
# MC38 tumors [4] = experiment: MC38 tumors in humanized CTLA-4 (hCTLA-4) mice; format: in vivo; conditions: for development of MC38 tumors: therapeutic, A9 and D11 25 mg/kg
# Source text: as §2
# Using another cohort of hCTLA-4 mice inoculated with MC38 cells, we treated animals (n = 5 per group) with ipilimumab, anti-PD-1, anti-PD-1 plus D11, D11 alone, or vehicle in the same dosages as used previously. Some animals’ tumors were collected approximately 10 days after the last treatment dose, whereas for the remaining animals, the tumors were allowed to grow (Supplementary Fig. S7). […] Single-cell suspensions from tumors were sorted to obtain CD45^+ immune cells, which were then subjected to single-cell RNA sequencing (scRNAseq) and TCR sequencing. Next, the immune cell populations were compared across the samples (Fig. 5b, c). […] Another interesting observation from the scRNAseq analysis was that the differential expression of membrane-type 1 matrix metalloproteinase, which is known for its role as a key regulator in cell migration in tissues, was associated with D11 treatment. This finding could lead to a possible new mechanism of action, besides macrophage recruitment, to drive the search for anticancer compounds.
# (§3) We next investigated analogs of the 5 anti-CTLA-4 compounds for possible refinement.
# C57BL/6 mice were purchased from the Charles River Laboratories. In hCTLA-4 mice, the exons encoding for the ECD and transmembrane domains of murine CTLA-4 were replaced with the human versions. […] Tumor volumes were calculated with the formula volume = (width^2 × length)/2. Measurements were recorded every 2 to 3 days. […] For the histopathologic analysis of the internal organs harvested from mice that had been treated with therapeutic compounds or control antibodies, stained sections were prepared from the formalin-fixed tissue and were assessed in a blinded fashion.
# [5] = test system: CD45+ immune cells from MC38 tumors; experiment: Single-cell RNA and TCR sequencing of CD45+ tumor immune cells; format: in vivo, hCTLA-4 mice; conditions: scRNAseq of CD45+ tumor cells
# Source text: Using another cohort of hCTLA-4 mice inoculated with MC38 cells, we treated animals (n = 5 per group) with ipilimumab, anti-PD-1, anti-PD-1 plus D11, D11 alone, or vehicle in the same dosages as used previously. Some animals’ tumors were collected approximately 10 days after the last treatment dose, whereas for the remaining animals, the tumors were allowed to grow (Supplementary Fig. S7). […] Single-cell suspensions from tumors were sorted to obtain CD45^+ immune cells, which were then subjected to single-cell RNA sequencing (scRNAseq) and TCR sequencing. Next, the immune cell populations were compared across the samples (Fig. 5b, c). […]
# Tumors from CTLA-4-humanized MC38 syngeneic mice (n = 3–5 mice) were extracted for single-cell suspension using a gentleMACS Octo Dissociator (Miltenyi Biotec). […] The acquired scRNAseq reads from the 10X Genomics platform were aligned to a reference genome (mm10) using Cell Ranger (V.7.1, 10X Genomics) default parameters. The reads and cells were further filtered with Seurat (V.4.0.3) in R (V.4.1.0). […] The clonality of the TCR repertoire was calculated as a 1-Pielou index value using the formula 1+ ∑(i=1 to n) (pi*ln(pi))/ln(n), where pi is the frequency of clone i for a sample of n unique clones; this metric was normalized to the number of unique clones and ranges from 0 to 1. […]
# [6] = test system: mouse tumor-infiltrating lymphocytes (TILs); experiment: IFN-γ production in mouse TILs cocultured with MC38 tumor cells; format: cell-based
# Description: We examined the ability of these 5 anti-CTLA-4 compounds to stimulate interferon-γ (IFN-γ) production in mouse tumor-infiltrating lymphocytes (TILs). MC38 tumors grown in C57BL/6 mice were extracted to obtain CD45^+ TILs.
# as §1
# [7] = Body weight of treated hCTLA-4 mice; format: in vivo; conditions: MC38-inoculated hCTLA-4 mice, treated vs control
# Source text: as §2, §3
# MC38 tumors [8] = experiment: MC38 syngeneic tumors in C57BL/6 mice; format: in vivo
# Description: C57BL/6 mice were purchased from the Charles River Laboratories. In hCTLA-4 mice, the exons encoding for the ECD and transmembrane domains of murine CTLA-4 were replaced with the human versions. All mice were maintained at the Research Animal Facility of Baylor College of Medicine, and all studies were conducted under an animal protocol approved by the Baylor College of Medicine Institutional Animal Care and Use Committee. Mice were challenged with 0.5 million MC38 colorectal cancer cells passaged the previous day at 75% confluence. For the prophylactic model, ipilimumab or small-molecule treatment began 1 day after tumor cell inoculation. For the therapeutic model, ipilimumab or small-molecule treatment was initiated 7 to 17 days after the injection of tumor cells, depending upon when the tumors reached an average size of approximately 100 mm^3. Tumor volumes were calculated with the formula volume = (width^2 × length)/2. Measurements were recorded every 2 to 3 days. For the histologic analyses, the internal organs, including the livers, kidneys, lungs, colons, and salivary glands, were fixed in 10% paraformal-dehyde for at least 24 h, cut from paraffin blocks in […] sections using a Microm HM 315 microtome, and mounted on SuperFrost Plus slides (Roth). Slides were stained with hematoxylin and eosin (Shandon Varistain [24–4] Automatic Stainer). For the histopathologic analysis of the internal organs harvested from mice that had been treated with therapeutic compounds or control antibodies, stained sections were prepared from the formalin-fixed tissue and were assessed in a blinded fashion.
# [9] = start at approximately 100 mm^3
# [10] = prophylactic setting, 25 mg/kg i.p.
compound,measurement,setting,value
Cc1c(Nc2nccc3cc(CN4CC[C@@H](O)C4)cnc23)cccc1-c1cccc(-c2nc3cc(CN4CC[C@@H](C(=O)O)C4)cc(C#N)c3o2)c1C [INCB086550],tumor development,tumor development,inhibited tumor development
"ipilimumab: an anti-CTLA-4 antibody, first immune checkpoint blockade therapy to receive FDA approval [reference compound]",Tconv (%),"[1]; 5 μg/ml, 6 days",42.7%
same,Tconv/Treg ratio,"[1]; 5 μg/ml, 6 days",3.44
same,Treg (%),"[1]; 5 μg/ml, 6 days",12.4%
same,promoter-mediated luminescence (blockade of CTLA-4 with CD80 and CD86),[2],resulted in promoter-mediated luminescence
same,serum TNNI3 levels,[3],elevated
same,tumor inhibition / therapeutic efficacy,"MC38 tumors [4]; second cohort (Fig. 5a), start at approximately 100 mm^3",inhibited tumors
same,development of MC38 tumors,MC38 tumors [4]; [9],inhibited tumors
same,tumor-infiltrating macrophages,[5],only moderately affected
same,IFN-γ production,[6]; 3-μg/ml doses,substantially stimulated
C/C(=N/OCc1ccccc1)c1nc(-c2ccccc2)[nH]c1C [A9],Tconv (%),"[1]; 10 μM, 6 days",43.1%
same,Treg (%),"[1]; 10 μM, 6 days",12.4%
same,Tconv (%),"[1]; 50 μM, 6 days",49.6%
same,Treg (%),"[1]; 50 μM, 6 days",20.9%
same,Tconv: Treg decrease (human cells),"[1]; Table 3 summary, Human CTLA-4/CD80",Y
same,promoter-mediated luminescence (blockade of CTLA-4 with CD80 and CD86),[2],resulted in promoter-mediated luminescence
same,body weight,[7],no significant weight loss
same,numbers of tumor-infiltrating Treg cells,MC38 tumors [8]; 25 mg/kg i.p.,reduced
same,MC38 models,"MC38 tumors [8]; Table 3 summary, Mouse or human CTLA-4/mouse CD80",Y
same,"tumor growth after rechallenge with 200,000 MC38 cells","MC38 tumors [8]; mice that completely rejected tumors, vs control group",slower
same,animal survival,MC38 tumors [8]; [10],prolonged animal survival
same,complete tumor rejection / complete response,MC38 tumors [8]; [10],Four of 10
same,tumor growth,"MC38 tumors [8]; prophylactic setting, 4 200-μg doses (25 mg/kg) i.p. every other day, start 1 day after inoculation",drastically inhibited tumor growth
same,tumor growth,"MC38 tumors [8]; therapeutic setting, start at tumor volume approximately 100 mm^3",significantly reduced tumor growth
same,tumor-inhibition activity in hCTLA-4 mice compared with non-humanized C57BL/6 mice,"MC38 tumors [4]; mouse, in vivo",superior tumor-inhibition activity
same,development of MC38 tumors,MC38 tumors [4]; [9],substantially inhibited
same,INF-γ stimulation ex vivo (MC38),"[6]; Table 3 summary, Mouse CTLA-4/CD80",Y
